The results in this text go back to a melting point compilation (Tetko et al.; mined from patent text by program, amines drawn as free bases though some values may be those of a salt).

One may read the melting point as the temperature, or range, at which the solid turns liquid.

Where only a bound is given, the exact number is not on record here.

Consider `CCN(CC)C(=O)COc1nc(C(F)(F)F)ns1`, for which the melting point came to 60 °C.

As to `COCNC(=O)NC1CCC(=O)c2sccc21` (stereo not given), the melting point lay in the range of 155 to 158 °C.

For `O=c1[nH]c(C2CCNCC2)nc2ccccc12`, the melting point is 244 to 245 °C.

Turning to `ClCOc1ccc(-c2ccc(Cl)cc2)cc1`, the melting point fell in the range of 68 to 70 °C.

Turning to `CC(C)NC(=O)OCC(=O)c1ccc(-c2ccccc2)cc1`, the melting point was 133 to 134 °C.

`CCS(=O)(=O)C(F)(F)C(Cn1cncn1)(OP(=O)(O)O)c1ccc(F)cc1F` (single isomer, unassigned; (+)): the melting point was 212 to 214 °C.

The compound `O=c1nc(-c2ccccn2)sc2ccc(OCCCc3ccccc3)cc12` showed a melting point of 170 °C.

`Sc1nnc(-c2cccnc2)o1` displayed a melting point of 237 °C.

For `COc1cc2nc(N3CCN(C(=O)C4CC4)CC3)nc(N)c2cc1OC`, the melting point was 284 to 286 °C.

Take `COC(=O)c1c(C)nc(C)c(C(=O)OCC2CCCO2)c1-c1cccc(O)c1` (stereo not given): the melting point was 95 to 97 °C.

In the case of `COc1ccc(-c2ccc(C(C)=NOCCO)cc2)cc1`, the melting point was in the range of 164 to 166 °C.

Regarding `O=C(O)[C@@]12C[C@@H](c3ccccc31)c1ccc(Cl)cc12`, the melting point lay within 172 to 173 °C.

On to `CN1CC[C@@H]2CC(=O)c3cc(F)ccc3[C@H]2C1` (relative stereo), for which the melting point is > 250 °C.

Compound `CC1(O)C=CC2C3CCC4=CC(=O)CCC4C3C(c3ccc(-c4cccnc4)cc3)CC21C` (stereo not given) showed a melting point of 159 °C.

Compound `COc1cc2c(cc1OC)CN(CCCSc1ccc(NC(=O)c3cccc4c(=O)c5cccc(F)c5[nH]c34)cc1)CC2` came in with a melting point of 162 °C.

For the compound `O=C(O)Cn1c(=O)c(=O)[nH]c2cc(Cl)c(Cl)cc21`, the melting point was in the range of 317 to 319 °C.

With `CON=Cc1ccccc1OCc1ccccc1C(=NOC)C(=O)OC`, the melting point lay in the range of 73 to 76 °C.

`CCOC(=O)C(C#N)C1CC(C)(C)NC(C)(C)C1` (stereo not given) displayed a melting point of 116 to 117 °C.

The compound `CCOC(=O)CNc1ccccc1C(N)=O` registered a melting point of 147 to 148 °C.

`CON=C(C#N)c1ccc(Cl)c(CNC(=O)OC)c1` returned a melting point of 104 to 107 °C.

For `CN1CCN(CCOc2cccc3c2c2cccc4c2n3C(c2ccccc2)CO4)CC1` (stereo not given), the melting point amounted to 57 °C.

As for `CCC(CC)c1nn(-c2ccc(C(F)(F)F)nn2)cc1CCCOc1c(C)cccc1CC(=O)O`, the melting point was in the range of 76 to 77 °C.

`COC(=O)c1cncc(-c2ccc(OC)cc2)c1` returned a melting point of 99 to 101 °C.

Regarding `CCn1ncc2c(NN=C(C)C)c(C(N)=O)cnc21`, the melting point fell in the range of 217 to 218 °C.

In the case of `CCOC(=O)C1Cc2cc3ccccc3n2C1` (stereo not given), the melting point lay within 55 to 57 °C.

In turn, `COc1cccc2c(Nc3ccccc3C)nc(Nc3ccccc3C)nc12` registered a melting point of 185 to 187 °C.

For the compound `Cc1cc(C)cc(NC(=O)Cc2ccc(OC3(C(=O)N[C@H](CC(C)C)C(=O)O)CCCC3)cc2)c1`, the melting point is 119 to 120 °C.

Regarding `NS(=O)(=O)c1cc(C(=O)c2cc3ccccc3o2)ccc1Cl`, the melting point lay in the range of 167 to 170 °C.

`CC(=O)N(CCCCC(=O)O)C(c1ccccc1)c1ccccc1` registered a melting point of 135 to 136 °C.

Take `CC(C)n1nc(-c2cnc(N)nc2-c2cccc(Cl)c2)ccc1=O`: the melting point was 236 to 237 °C.

`CCCOc1ccccc1C(=O)Nc1ccccc1C(N)=O` yielded a melting point of 149 to 150 °C.

As for `CN(C)c1ccc(NC(=O)N(C[C@H]2CC[C@H](CN(C(=O)Nc3ccc(N(C)C)cc3)C3CCCC3)CC2)C2CCCC2)cc1`, the melting point is 162 to 165 °C.

As to `O=C(O)c1cn(-c2ccc(F)cc2F)c2nc(S(=O)(=O)c3ccccc3)c(F)cc2c1=O`, the melting point lay within 252 to 258 °C.

The compound `OCCNc1nc(Cl)nc2c1ncn2C1CC(O)C(CO)O1` (stereo not given) gave a melting point of 167 to 168 °C.

`COc1cccc2c(Nc3cccc(Br)c3)c(C#N)cnc12` returned a melting point of 210 to 212 °C.

`O=c1c(-c2cccc(F)c2)c(CNc2ncnc3[nH]cnc23)oc2ccccc12`: the melting point fell in the range of 211 to 214 °C.

With `O=C(CCNc1c(C(=O)O)[nH]c2cc(Cl)ccc12)c1ccccc1`, the melting point was in the range of 250 to 255 °C.

For `CN(C)C1CCc2[nH]c3ccc(O)cc3c2C1` (stereo not given), the melting point lay in the range of 202 to 204 °C.

Compound `CC(C)n1nc(-c2nc(C3=CCCN(C)C3)c(N)nc2-c2ccccc2)ccc1=O` returned a melting point of 191 to 193 °C.

In turn, `COc1ccc(CC(=O)Nc2cccc3c2C(=O)c2c-3n[nH]c2-c2ccc(OC)cc2)cc1` returned a melting point of 280 °C.

As for `CN1CCC(c2cc3c(F)cccc3c(=O)[nH]2)CC1`, the melting point fell in the range of 220 to 222 °C.

Take `COC(C)Cc1ccc(OCCNc2ncnc3ccccc23)c(C)c1` (stereo not given): the melting point lay in the range of 95 to 97 °C.

`CCCCCCCCC=CCCCCCCCCCCCC(=O)NCCOC(C)=O` came in with a melting point of 51 °C.

On to `CC(C)Oc1cc(Oc2ccc(S(C)(=O)=O)cn2)cc2cc(C3=NCC(CC(N)=O)S3)[nH]c12` (stereo not given), for which the melting point was in the range of 212 to 213 °C.

In turn, `CC1(C(=O)Nc2cnc(Cl)c(Cl)c2)CC1` displayed a melting point of 115 to 117 °C.

`Cc1cnc(C(=O)c2[nH]c3ccc(Cl)cc3c2CC(=O)O)s1` came in with a melting point of 231 to 233 °C.

In turn, `CCOC(=O)c1csc(NC(=O)c2cccc(C#N)c2)n1` yielded a melting point of 203 to 204 °C.

Take `CC(=O)NCc1ccc(CN2CCN(c3cc(Cl)nc(Cl)n3)CC2)cc1`: the melting point fell in the range of 165 to 166 °C.

`O=C(NC1CCCc2c(O)cccc21)c1cccc(Cl)c1O` (stereo not given) displayed a melting point of 148 to 151 °C.

Regarding `Fc1ccc2c(c1)nc(CC(F)(F)F)n2C1CCNCC1`, the melting point was 135 °C.

In turn, `CCOC(=O)CCCCC(=O)c1c(CBr)n(C(C)=O)c(=O)n1C(C)=O` gave a melting point of 114 to 115 °C.

`CCSc1nc2nsc(N)c2s1` came in with a melting point of 131 to 134 °C.

In the case of `CCOC(=O)c1nn(-c2ccc(Br)cc2)c(=O)c(C#N)c1C`, the melting point is 174 to 176 °C.

As for `Nc1ccccc1C(=O)N1CCCc2ccccc21`, the melting point worked out at 102 °C.

In the case of `COc1cc2c(cc1OC)C1Cc3cc(OC)c(OC(=O)C=Cc4cc(OC)c(OC)c(OC)c4)cc3CN1CC2` (stereo not given), the melting point lay in the range of 207 to 210 °C.

The compound `CCOCc1nc2c(N)nc3cc(OCc4ccc(C(F)(F)F)o4)ccc3c2n1CC(C)(C)NS(C)(=O)=O` registered a melting point of 186 to 188 °C.

As for `CC(C)(C)c1cc(I)c2c(c1)CNC1(CCSCC1)O2`, the melting point lay in the range of 123 to 124 °C.

Turning to `Oc1ccc2ccccc2c1N=Nc1ccc2[nH]nnc2c1`, the melting point was 250 °C.

In the case of `O=c1c2cccc3ncc(c(=O)n1CCCCCNS(=O)(=O)C(F)(F)F)n32`, the melting point fell in the range of 166 to 167 °C.

`CCOC(=O)c1ccc(C=C(C)c2cc3c(cc2C)C(C)(C)CCC3(C)C)cc1` registered a melting point of 109 to 110 °C.

For `CS(=O)(=O)c1ccc(-c2cnn(-c3ccc(F)c(F)c3)c(=O)c2C#Cc2ccccc2)cc1`, the melting point is 211 to 213 °C.

As to `Nc1ncc(I)cc1[N+](=O)[O-]`, the melting point fell in the range of 213 to 215 °C.

Compound `COc1cc(COc2nn(-c3ccccc3)cc2/C=C/CO)ccc1OCc1nc(-c2ccco2)oc1C` gave a melting point of 120 to 121 °C.

For the compound `CC(C)c1c(Sc2cc(Cl)cc(Cl)c2)nc(COCCO)n1C`, the melting point was 67 to 68 °C.

`Cc1cn(S(C)(=O)=O)c2c1C(=O)CC(c1cccs1)C2` (stereo not given) had a melting point of 135 to 136 °C.

In the case of `CCc1cncc(-c2[nH]nc(C(=O)Cc3ccc4ccccc4c3)c2N)c1`, the melting point was in the range of 222 to 224 °C.

In turn, `CN(C)c1ccc2ncnc(Cl)c2c1` came in with a melting point of 126 to 128 °C.

Regarding `CCOP(=O)(COCC(O)COn1cnc2c(N)ncnc21)OCC` (stereo not given), the melting point lay in the range of 84 to 85 °C.

For `CON1C(C)(C)CC(CCCCNc2nc(N)nc(NCCCCC3CC(C)(C)N(OC)C(C)(C)C3)n2)CC1(C)C`, the melting point was in the range of 163 to 165 °C.

The compound `O=C(O)Cc1cccc(OCCCCl)c1` displayed a melting point of 83 to 84 °C.

Regarding `O=C(c1cnoc1)N1CCCCC1`, the melting point was in the range of 78 to 81 °C.

In turn, `CNc1cc(F)ccc1C(C)=O` showed a melting point of 52 to 53 °C.

As to `CNS(=O)(=O)c1cn(C)c2cc(C)ccc2c1=O`, the melting point lay in the range of 237 to 240 °C.

As for `CCOc1cc2c(cc1OC)C(c1ccc(-c3nnn(CC)n3)cc1)=N[C@H]1CCCC[C@@H]21` (racemic), the melting point is 167 to 170 °C.

With `COC(=O)C(=O)Oc1c(F)c(F)c(F)c(F)c1F`, the melting point lay within 34 to 35 °C.

Turning to `CC(=O)N1CCc2cc(S(=O)(=O)n3c(CCCC(=O)O)cc4nc(Cl)ccc43)ccc21`, the melting point is 226 °C.

As for `CC(C(=O)O)c1cc(=O)n(Cc2ccc(Cl)cc2)c2ccc(Cl)cc12` (stereo not given), the melting point was in the range of 192 to 194 °C.

`CC(Cc1cc(F)cc2cc(Cl)oc12)NC(=O)OC(C)(C)C` (stereo not given) displayed a melting point of 133 to 135 °C.

`O=c1c2scc(Br)c2ncn1O`: the melting point lay in the range of 244 to 247 °C.

`CNC(=S)NN=C(CCCOC(=O)Nc1ccccc1)c1ccccc1` gave a melting point of 155 to 157 °C.

`CC(C)N(CCC(c1ccccc1)c1cc(CO)ccc1OCc1ccccc1)C(C)C` (stereo not given) had a melting point of 86.4 °C.

With `O=C(O)COc1cccc2c1Cc1sc(S(=O)(=O)CCC(c3ccccc3)c3ccccc3)nc1-2`, the melting point lay in the range of 131 to 133 °C.

For `COc1ccc2cccc(Cl)c2c1`, the melting point was 32 to 34 °C.

As for `Cc1ccc(-c2ccc3c(c2)C=C(C(=O)Nc2ccc(CNCc4ccccc4)cc2)CCO3)cc1`, the melting point was in the range of 147 to 148 °C.

With `CC(=O)CCCCCCCc1ccc(O)c(O)c1`, the melting point fell in the range of 73 to 75 °C.

`CCOc1sc(C(=O)N2CCCC2)c2c1-c1oncc1C(C)(C)C2`: the melting point fell in the range of 123 to 126 °C.

In the case of `CCOC(=O)CC(=O)Nc1ccc(N)c([N+](=O)[O-])c1`, the melting point lay in the range of 133 to 136 °C.

Compound `CNC(=O)C(Cc1c[nH]c2ccccc12)NC(=O)C(CC(C)C)C(CC(=O)OC)SC(C)=O` (stereo not given) came in with a melting point of 134 to 136 °C.

The compound `CC1OC(=O)N2c3ccc(OCCCC(F)(F)F)cc3CCC12` (stereo not given) came in with a melting point of 79.1 to 79.2 °C.

`COc1ccc(CN(CCN(C)CCCCNC(=O)NCCCOc2cccc(CN3CCCCC3)c2)c2ccccn2)cc1`: the melting point fell in the range of 68 to 72 °C.
